Data as given in publication PMC10082777, “Pyrazole-sulfonamide scaffold featuring dual-tail strategy as apoptosis inducers in colon cancer” (Scientific Reports, 2023).

Target: T1, Carbonic Anhydrase IX (CA IX) (Homo sapiens, UniProt Q16790)
T1 construct: gene CA9; AA 1-459, GST tag
Assay: CA inhibitor screening kit (BioVision K473-100), recombinant CA IX, absorbance at […] nm, kinetic mode
Format: biochemical

IC50 [µM] | Compound
0.336 | Nc1cc(Nc2ccc(S(=O)(=O)Nc3ccccn3)cc2)n(-c2ccccc2)n1 [compound 3, 4-((3-Amino-1-phenyl-1H-pyrazol-5-yl)amino)-N-(pyridin-2-yl) benzenesulfonamide]
0.128 | Nc1nn(-c2ccccc2)c(-c2ccccc2)c1C(=O)Nc1ccc(S(=O)(=O)Nc2ccccn2)cc1 [compound 11, 3-Amino-1,5-diphenyl-N-(4-(N-(pyridin-2-yl)sulfamoyl)phenyl)-1H-pyrazole-4-carboxamide]
